{"source": "patent US20200291082A1", "about": "“PREVENTION AND TREATMENT OF GRAFT-VERSUS-HOST-DISEASE WITH DEFENSINS” (priority 2017, published 2020)", "key": {"[1]": {"system": "CD4+CD25+ Tcell transfer induced colitis", "test": "therapeutic murine 14 weeks CD4+CD25+ Tcell transfer induced colitis model (Example 6)", "assay_type": "in vivo, SCID mice", "conditions": "hBD2 1 mg/kg s.c. OD, Dexamethasone 0.3 mg/kg i.p. OD, Enbrel 100 μg/mouse s.c. twice weekly", "from_the_text": "Efficacy of s.c. administration of hBD2 versus s.c. anti TNF-α (Enbrel) and intraperitoneal dexamethasone in a therapeutic, murine, 14 weeks, CD4+CD25+ Tcell transfer induced colitis model.\n70 female BALB/c mice housed in groups of five per cage were allocated to 7 different treatment groups. Colitis was induced in SCID mice by transplantation of CD4+CD25+ Tcells from BALB/c mice. Lymphocytes isolated from spleen and lymph nodes from BALB/c mice were subjected to negative selection of CD4+ Tcells. Afterwards, CD4+CD25+ cells were positively isolated by binding to the beads from the CD4+ Tcell suspensions and the CD4+CD25− were collected from the supernatant. The animals were treated with hBD2, 0.1 mg/kg s.c. OD; 1 mg/kg s.c. OD or 3 mg/kg s.c. OD or with mouse anti TNFα 100 μg/mouse s.c. twice weekly or with dexamethasone 0.3 mg/kg intraperitoneally OD or PBS s.c. as vehicle from day 7 and 86 consecutive days.\nClinical assessment was based on body weight loss, stool consistency and presence of blood per rectum. The animals were sacrificed on day 95 and colon removed for assessment of weight and myeloperoxidase activity."}, "[2]": {"system": "Trinitrobenzene Sulfonic Acid induced colitis", "test": "prophylactic murine 8-day Trinitrobenzene Sulfonic Acid induced colitis model (Example 3)", "assay_type": "in vivo, BALB/cByJ mice", "conditions": "Prednisolone 10 mg/kg s.c. once daily; hBD2 at 0.1, 0.3 and 1 mg/kg s.c. once daily", "protocol": "Anti-inflammatory effect of s.c. administration of hBD2 versus s.c. prednisolone in a prophylactic murine, 8-day Trinitrobenzene Sulfonic Acid induced colitis model.\n105 male BALB/cByJ mice housed in groups of five per cage were allocated to 7 different treatment groups. Colitis was induced by intracolonic administration of trinitrobenzene sulfonic acid on day 0 under light anaesthesia resulting in significant inflammation and injury of the colonic tissue. The animals were treated with hBD2 at four different dosing levels once daily (1 mg/kg, 0.3 mg/kg, 0.1 mg/kg, and 0.03 mg/kg) or Prednisolone 10 mg/kg once daily dosed subcutaneously under the dorsal skin or PBS as vehicle for 7 days.\n(§1) A disease activity index (DAI) scoring system was applied for clinical assessment (FIG. 7). The animals were sacrificed on day 10 and colon removed for histological assessment employing a histological scoring system (FIG. 8)."}, "[3]": {"system": "Dextran Sodium Sulphate induced colitis", "test": "prophylactic murine 10-day oral Dextran Sodium Sulphate induced colitis model, oral hBD2 versus oral prednisolone (Example 2)", "assay_type": "in vivo, C57BL/6 mice", "conditions": "versus vehicle; Prednisolone 1 mg/kg twice per day p.o.; oral hBD2 all doses", "protocol": "Anti-inflammatory effect of oral administration of hBD2 versus oral prednisolone in a prophylactic murine, 10-day, oral Dextran Sodium Sulphate induced colitis model.\n50 male C57BL/6 mice housed in groups of five per cage were allocated to 5 different treatment groups. All animals had their drinking water supplemented with DSS 2% for 7 days to induce colitis resulting in significant inflammation and injury of the colonic tissue. The animals were treated with oral hBD2 dosed at three different dose levels twice per day or prednisolone 1 mg/kg twice per day or PBS as vehicle for 10 days.\nas §1"}, "[4]": {"system": "house dust mite model of allergic asthma", "test": "therapeutic intranasal versus oral hBD2 in murine house dust mite model of allergic asthma (Example 10)", "assay_type": "in vivo, BALB/c mice", "conditions": "dexamethasone 1 mg/kg BID oral; hBD2 both IN doses (0.4 mg/kg/day TID and 1.7 mg/kg/day TID)", "protocol": "To determine and assess the efficacy of IN versus oral therapeutic intervention with defensins in a murine house dust mite model of allergic asthma.\nTreatment regime: Female 7-10 weeks old BALB/c mice were randomly allocated into 7 study groups one day prior to study start and subcutaneously (SC) sensitized to house dust mite (100 μg HDM in 200 μL saline plus Freund's complete adjuvant in 0.9% saline). Mice were then intranasally (IN) challenged with HDM on day 14 (HDM 25 μg in 50 μL of saline). Dexamethasone was administered orally (1 mg/kg BID; 50 μL phosphate buffered saline (PBS)) on day 14. hBD2 was administered IN or orally (1.7 mg/kg TID IN; 0.4 mg/kg TID IN; 0.4 mg/kg TID orally, 50 μL phosphate buffered saline) on day 14. The initial dose was administered 60 minutes prior to challenge, and the subsequent doses approximately 6 hours apart (FIG. 5).\nAirway inflammation: At 48 hours post challenge, bronchoalveolar lavage was performed washing the lungs with 3 volumes of cold PBS (0.4; 0.3 and 0.3 mL, total 1 mL). Total and differential leucocyte cell counts were determined on an automated haematological analyser Sysmex XT-2000iV.\nData are represented as airway resistance at […] methacholine and as dose responsive curves.\nLung sampling for cytokine analysis: After completion of every BAL, lungs were removed from the thorax, snap frozen in liquid nitrogen and stored frozen at −80 degrees Celsius until analysis of cytokine concentration of IL-1β, TNF-α, IL-6, IL-10 and IFNγ by ELISA."}, "[5]": {"system": "gut microbiota in high fat diet murine model", "test": "prophylactic treatment with defensins in murine high fat diet model, gut microbiota (Example 7)", "assay_type": "in vivo, mice", "from_the_text": "Protection and preservation of gut microbiota by prophylactic treatment with defensins. Mice: Mice were housed in trios, 4 cages per group. Feed intake was registered daily just before lights were turned off at 6 pm. Individual mice were subjected to experimental procedures in altered order both group and cage wise. Mice were kept at room temperature under a 12-hour light/dark cycle at SPF standard conditions. Diets: For dosing, the average weight was estimated to be 25 grams per mouse. Mice eat approximately 3 grams of feed per mouse per day. Treatment regime: Mice were fed either a high fat diet (HFD) or a low fat (LF) control diet. The HFD contained 4 subgroups; 1 hBD2, 1 HD5, 1 hBD2/HD5 and 1 standard HFD without supplementation of defensins (FIG. 3). Defensin concentration was 1,2 mg hBD2 per kg mouse per day. HD5 was given in equimolar concentration to hBD2. […] Microbial analyses were carried out to study the microbiota of the intestine. Longitudinal 16S characterization was conducted on 4 paired samples from 60 mice, 240 samples in total. Each mouse was sampled prior to diet change, 1 week post diet change, 4 weeks post diet change and at termination, thus ensuring a thorough characterization of the faecal microbiota as a result of defensin treatment."}, "[6]": {"system": "acute graft versus host disease following stem cell transplantation", "test": "prophylactic oral HD5 or hBD-2 in murine model of acute graft versus host disease (Example 15)", "assay_type": "in vivo, BALB/c mice", "protocol": "To determine and assess the efficacy of prophylactic treatment with oral HD5 in a murine model of acute graft versus host disease following stem cell transplantation.\nTreatment regime: 22 female BALB/c mice were irradiated with 4.5 Gy (2×498 sec) at intervals of at least 4 hours on day 0. Bone marrow was harvested: hind limbs harvested from 2 female WT C57BL/6 mice aseptically. Skeletal muscle was removed and epiphysis cut away. Lumen of bone flushed with PBS and cells pelleted and taken up. Harvest of T-cells: spleens from 2 female WT C57BL/6 mice were meshed through a […] cell strainer into a PBS filled dish. Cells were taken up in PBS and transferred into a 50 mL falcon tube and spun down. Cells were taken up in 1 mL PBS and 20 μL of CD4 microbead+20 μL CD8 microbeads per spleen added for incubation for 20 min at 4 degrees C. Cells were washed with PBS and applied to MACS separation in order to positively select CD4+ and CD8+ cells. Positively selected T-cells were counted and taken up. Transplantation: directly after the second irradiation, all WT BALB/c recipient mice were injected with 5×1.000.000 BM cells (50 μL) i.v. into the retroorbital venous plexus under isoflurane anesthesia. 22 BALB/c mice were treated with 1.2 mg of HD5/kg BW/day; 1.2 mg of hBD-2/kg BW/day or 100 μL of PBS per day vial oral gavage from day 0-10.\nSurvival was monitored for 60 days."}, "[7]": {"system": "microbiota in diet-induced obese mice", "test": "interventional treatment of dysbiosis with defensins in diet-induced obese mice (Example 8)", "assay_type": "in vivo", "from_the_text": "Mice and diets. The experiment elucidates the effect of hBD2 and HD5 on the microbiota in diet-induced obese mice. A run-in period of 13 weeks where mice were fed a very HFD (60% energy from fat) preceded the intervention. Only mice meeting the criteria of a minimum of 12 gram weight gain (approximately 50% of initial bodyweight) during the run-in period were included in the final analyses. […] They were exposed to all experimental tests, but excluded from the analyses.\nTreatment regimen. Before the intervention all mice were MR scanned. Cages of mice were allocated to experimental groups based on their fat mass. All subsequent measures were paired with data from the same mouse before the intervention. A LFD (low fat diet) reference group was running in parallel. As controls for the intervention 2 additional groups were included: 1 very HFD and 1 LFD. Experimental mice stayed on the very HFD during the intervention (FIG. 3). The mice were on the experimental diet for 10 weeks. They were co-housed throughout the experiment, 4 mice per cage, 3 cages per group. All tests ran over 3 days, 1 cage per group per day.\nTests. Microbial analyses were carried out to study the microbiota of the intestine.\nLongitudinal 16S characterization was conducted on 4 paired samples from 60 mice, 240 samples in total. Each mouse was sampled prior to diet change, 1 week post diet change, 4 weeks post diet change and at termination, thus ensuring a thorough characterization of the faecal microbiota as a result of defensin treatment."}, "[8]": {"system": "bacteria at the surface of the intestinal mucosa", "test": "anti microbial effect of orally administered defensins, mucin immunostaining and localization of bacteria by FISH (Example 16)", "assay_type": "in vivo", "conditions": "compared with mice on low fat or western diet", "protocol": "Anti microbial effect of orally administered defensins (HD5 and hBD-2).\nMucus immunostaining was paired with fluorescent in situ hybridization (FISH), as previously described in order to analyze bacteria localization at the surface of the intestinal mucosa. Briefly, colonic tissues (proximal colon, 2nd cm from the cecum) without fecal material were placed in methanol-Carnoy's fixative solution (60% methanol, 30% chloroform, 10% glacial acetic acid) for a minimum of 3 hours at room temperature. Tissues were then washed in methanol 2×30 min, ethanol 2×15 min, ethanol/xylene (1:1), 15 min and xylene 2×15 min, followed by embedding in Paraffin with a vertical orientation. Five pm sections were performed and dewax by preheating at 60° C. for 10 min, followed by xylene 60° C. for 10 min, xylene for 10 min and 99.5% ethanol for 10 minutes. Hybridization step was performed at 50° C. overnight with EUB338 probe (5′-GCTGCCTCCCGTAGGAGT-3′, with a 5′ labeling using Alexa 647) diluted to a final concentration of 10 μg/mL in hybridization buffer (20 mM Tris-HCl, pH 7.4, 0.9 M NaCl, 0.1% SDS, 20% formamide). After washing 10 min in wash buffer (20 mM Tris-HCl, pH 7.4, 0.9 M NaCl) and 3×10 min in PBS, PAP pen (Sigma-Aldrich) was used to mark around the section and block solution (5% fetal bovine serum in PBS) was added for 30 min at 4° C. […]"}, "[9]": {"conditions": "HFD plus HD5, after dietary intervention"}}}
{"molecule": "Enbrel [reference compound]", "values": [{"measurement": "myeloperoxidase activity", "setting": "[1]; colon, day 95", "value": "statistically significant and similar effect"}, {"measurement": "clinical score (body weight loss, stool consistency, presence of blood per rectum)", "setting": "[1]", "value": "statistically significant and similar effect on clinical score"}, {"measurement": "colon weight", "setting": "[1]; day 95", "value": "statistically significant and similar effect on colon weight"}]}
{"molecule": "C[C@]12C=CC(=O)C=C1CC[C@@H]1[C@@H]2[C@@H](O)C[C@@]2(C)[C@H]1CC[C@]2(O)C(=O)CO", "note": "[Prednisolone, reference compound]", "values": [{"measurement": "histological score", "setting": "[2]", "value": "highly statistically significant clinical effect on histological score"}, {"measurement": "histological score", "setting": "[3]", "value": "statistically significant effect on histological score"}]}
{"molecule": "C[C@@H]1C[C@H]2[C@@H]3CCC4=CC(=O)C=C[C@]4(C)[C@@]3(F)[C@@H](O)C[C@]2(C)[C@@]1(O)C(=O)CO", "note": "[Dexamethasone, reference compound]", "values": [{"measurement": "macrophage counts in BALF", "setting": "[4]", "value": "failed to inhibit"}, {"measurement": "neutrophil counts in BALF", "setting": "[4]", "value": "failed to inhibit"}]}
{"molecule": "human intestinal alpha defensin 5 (ATCYCRTGRCATRESLSGVCEISGRLYRLCCR; listed as Homo sapiens) [HD5]", "values": [{"measurement": "microbial presence and abundance (unifrac analysis)", "setting": "[5]; prophylactic oral defensins in high fat diet", "value": "affected primarily the microbial abundance"}, {"measurement": "abundance of Allobaculum", "setting": "[5]; small intestine, prophylaxis with HD5", "value": "statistically significant increase of abundance of Allobaculum"}, {"measurement": "mortality", "setting": "[6]; FIG. 58, oral treatment for 10 days from day of stem cell transplantation", "value": "significant reduction of mortality"}, {"measurement": "treated animals that had died by day 60", "setting": "[6]; oral 1.2 mg/kg/day day 0-10, six out of eight PBS mice died", "value": "2 out of 8"}, {"measurement": "fat percentage", "setting": "[7]; HFD plus HD5, 4 weeks after dietary change, versus HFD control", "value": "significantly lower fat percentage"}, {"measurement": "fat percentage", "setting": "[7]; [9]", "value": "tendency of decreasing fat percentage"}, {"measurement": "weight gain", "setting": "[7]; [9]", "value": "gained significantly less weight than the HFD control"}, {"measurement": "abundance of Alloprevotella", "setting": "[7]; colon", "value": "increased the abundance of Alloprevotella statistically significantly"}, {"measurement": "relative abundance of Bifidobacteriaceae", "setting": "[7]; small intestine", "value": "trend towards HD5 increasing the abundance"}, {"measurement": "lysis zone, distance between intestinal wall and bacterial population", "setting": "[8]", "value": "profound effect on the distance"}]}
